Values of other authors as cited in patent US20070149578A1, “Combination Therapy” (Pfizer, Inc., priority 2000, published 2007).

What was measured:
[1] = test system: smooth muscle cell migration; details: see International Patent Application Number PCT/EP95/00847
[2] = test system: calcium channel; details: see International Patent Application Number PCT/EP94/02697

Row | Compound | inhibitor of smooth muscle cell migration [1] | calcium channel blocking activity [2]
1 | CCOC(=O)C1=C(COCCN)NC(C)=C(C(=O)OC)[C@H]1c1ccccc1Cl (single isomer, unassigned) [R(+) isomer] | potent inhibitor | little or no calcium channel blocking activity
2 | CCOC(=O)C1=C(COCCN)NC(C)=C(C(=O)OC)[C@@H]1c1ccccc1Cl (single isomer, unassigned) [S(−) isomer] | – | substantially confined to the S(−) isomer
